Test results taken from patent US11191765B2, “Heterocyclic compounds for the inhibition of PASK” (BioEnergenix LLC, priority 2012, dated 2021).

Each compound was assayed against PASK (UniProt #Q96RG2; human recombinant N-terminal GST tagged construct, residues 879-1323) (Homo sapiens (Human), UniProt Q96RG2) (assay: PASK ATP Radiochemical Assay). Settings: radiochemical 33P-ATP assay, Myelin Basic Protein substrate, 120 min at room temperature; read-out: IC50 Kinase Domain.
Sequence of PASK (Q96RG2 879-1323, change not shown): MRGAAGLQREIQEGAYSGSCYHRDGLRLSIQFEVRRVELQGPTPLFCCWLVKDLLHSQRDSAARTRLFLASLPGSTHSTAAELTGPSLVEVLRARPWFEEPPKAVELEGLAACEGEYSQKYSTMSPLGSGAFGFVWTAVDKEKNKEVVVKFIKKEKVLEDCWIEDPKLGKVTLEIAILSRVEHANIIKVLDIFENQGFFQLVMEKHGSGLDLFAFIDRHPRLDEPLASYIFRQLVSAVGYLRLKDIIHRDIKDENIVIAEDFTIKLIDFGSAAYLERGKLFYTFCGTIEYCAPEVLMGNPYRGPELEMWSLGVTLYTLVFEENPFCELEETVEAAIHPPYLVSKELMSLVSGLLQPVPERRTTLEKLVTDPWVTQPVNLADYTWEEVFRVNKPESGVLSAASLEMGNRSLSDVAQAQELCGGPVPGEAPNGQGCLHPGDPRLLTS
Type: biochemical
Experimental: Biochemical Assay for hPASK Activity
PASK ATP Radiochemical Assay
Purified PASK (UniProt #Q96RG2; human recombinant N-terminal GST tagged construct, residues 879-1323) from insect cells (final concentration 5 nM) is added to freshly prepared Base Reaction Buffer containing 20 mM HEPES (pH 7.5), 10 mM MgCl2, 1 mM EGTA, 0.02% Brij35, 0.02 mg/ml BSA, 0.1 mM Na3VO4, 2 mM DTT, 1% DMSO and Myelin Basic Protein (20 μM final). Test compounds in DMSO are then added and the mixture, followed by delivery of ^33P-ATP (specific activity 0.01 μCi/μl final) to initiate the reaction. The kinase reaction is incubated for 120 min at room temperature. The entire reaction mixture is washed through onto a P81 Phosphocellulose paper and washed three times for 10 minutes in 75 mM phosphoric acid and once in methanol prior to drying and scintillation counting.
For `COc1cc(-c2cc(=O)n3nc(-c4ccc(Cl)cc4)nc3[nH]2)ccc1Cl` [Example 8, 5-(4-Chloro-3-methoxyphenyl)-2-(4-chlorophenyl)-[1,2,4]triazolo[1,5-a]pyrimidin-7(4H)-one], the IC50 was at most 10 µM. Compound `O=c1cc(-c2ccc3c(c2)OCO3)[nH]c2nc(-c3ccc(Cl)cc3)nn12` [Example 15, 5-(Benzo[d][1,3]dioxol-5-yl)-2-(4-chlorophenyl)-[1,2,4]triazolo[1,5-a]pyrimidin-7(4H)-one] has an IC50 of at most 10 µM. Compound `COc1ccccc1-c1cc(=O)n2nc(-c3ccccc3)nc2[nH]1` [Example 30, 5-(2-Methoxyphenyl)-2-phenyl-[1,2,4]triazolo[1,5-a]pyrimidin-7(4H)-one] has an IC50 of at most 10 µM. For `O=c1cc(-c2ccccc2)[nH]c2nc(-c3ccccc3)nn12` [Example 31, 2,5-Diphenyl-[1,2,4]triazolo[1,5-a]pyrimidin-7(4H)-one], the IC50 was at most 10 µM. For `COc1ccc(-c2cc(=O)n3nc(-c4ccccc4)nc3[nH]2)cc1` [Example 32, 5-(4-Methoxyphenyl)-2-phenyl-[1,2,4]triazolo[1,5-a]pyrimidin-7(4H)-one], the IC50 was at most 10 µM. Compound `COc1cccc(-c2cc(=O)n3nc(-c4ccccc4)nc3[nH]2)c1` [Example 33, 5-(3-Methoxyphenyl)-2-phenyl-[1,2,4]triazolo[1,5-a]pyrimidin-7(4H)-one] has an IC50 of at most 10 µM. For `COc1ccc(-c2cc(=O)n3nc(-c4ccc(Cl)cc4)nc3[nH]2)cc1` [Example 34, 2-(4-Chlorophenyl)-5-(4-methoxyphenyl)-[1,2,4]triazolo[1,5-a]pyrimidin-7(4H)-one], the IC50 was at most 10 µM. `COc1ccc(-c2nc3[nH]c(-c4ccccc4)cc(=O)n3n2)cc1` [Example 35, 2-(4-Methoxyphenyl)-5-phenyl-[1,2,4]triazolo[1,5-a]pyrimidin-7(4H)-one] showed an IC50 of at most 10 µM. For `O=c1cc(-c2ccccc2)[nH]c2nc(-c3ccccc3Cl)nn12` [Example 36, 2-(2-Chlorophenyl)-5-phenyl-[1,2,4]triazolo[1,5-a]pyrimidin-7(4H)-one], the IC50 was at most 10 µM. `COc1ccc(-c2cc(=O)n3ncnc3[nH]2)cc1OC` [Example 37, 5-(3,4-Dimethoxyphenyl)-[1,2,4]triazolo[1,5-a]pyrimidin-7(4H)-one] showed an IC50 of at most 10 µM. `COc1ccc(-c2cc(=O)n3ncnc3[nH]2)cc1` [Example 38, 5-(4-Methoxyphenyl)-[1,2,4]triazolo[1,5-a]pyrimidin-7(4H)-one] was tested, and the IC50 was at most 10 µM.

What follows are compounds tested against PASK (Invitrogen) (Homo sapiens (Human), UniProt Q96RG2) (assay: PAS Kinase FRET Assay). Settings: TR-FRET (665 nm/615 nm), Ulight-peptide substrate, 2 hours at 25° C.; read-out: IC50 Kinase Domain.
Sequence of PASK (Invitrogen) (Q96RG2 999-1251): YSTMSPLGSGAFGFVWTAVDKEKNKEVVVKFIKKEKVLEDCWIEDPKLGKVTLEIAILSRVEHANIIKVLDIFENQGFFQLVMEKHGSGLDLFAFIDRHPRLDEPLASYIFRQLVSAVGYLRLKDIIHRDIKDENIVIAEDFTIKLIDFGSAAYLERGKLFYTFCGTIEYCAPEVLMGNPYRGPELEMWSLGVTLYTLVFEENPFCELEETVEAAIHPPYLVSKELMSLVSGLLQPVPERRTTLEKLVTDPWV
Type: biochemical
From the text: The aim of the FRET assay is to determine the inhibition potential of test compounds on targeted kinase. This assay platform provides a homogenous screening method for measuring kinase activity by quantitating the amount of phospho-substrate in solution following a kinase reaction.
In the presence of kinase and ATP, the Ulight-peptide is phosphorylated and captured by an anti-phospho-substrate antibody, which brings the Eu chelate donor and Ulight acceptor dyes into close proximity. Upon excitation at 340 nm, the Eu chelate transfers its energy to the Ulight dye, resulting in a fluorescent light emission at 665 nm.
Titration of kinase at 1 mM ATP was achieved via the following protocol. After making serial three-fold dilutions of PASK (Invitrogen) in reaction buffer across the plate; 5 μl of kinase dilution and 5 μl substrate/ATP mix were added to the wells of the white Optiplate-384 (PerkinElmer). The contents of the plate were and incubated at RT for 1 h. The reaction was stopped by adding 5 μl of stop solution to each test well followed by mixing and incubation at RT for 10 minutes. 5 μl of detection mix (detection antibody diluted in detection buffer) was added; the contents of the plate were mixed and then incubated in the dark for 1 hour at RT. The signal was recorded at TR-FRET mode (665 nm/615 nm). The results were graphed to calculate the EC50.
Titration of ATP at the EC50 concentration of kinase to determine ATP Km,app. was performed using the following method. After making serial dilutions of ATP (Invitrogen), 5 μl of ATP dilution and 5 μl substrate/kinase mix were added to the wells of the white Optiplate-384 (PerkinElmer). The contents of the plate were and incubated at RT for 1 h. The reaction was stopped by adding 5 μl of stop solution to each test well followed by mixing and incubation at RT for 10 minutes. 5 μl of detection mix (detection antibody diluted in detection buffer) was added; the contents of the plate were mixed and then incubated in the dark for 1 hour at RT. The signal was recorded at TR-FRET mode (665 nm/615 nm). The results were graphed to calculate the EC50 as the ATP Km,app.
Compound screening was done via the following method. 10 mM stock solution of test compound in DMSO was prepared by dissolving test compound in DMSO at RT for 1 hour, and then sonicating at 100% output for 8 minutes. If compound is not soluble under this condition, it was diluted to 3 mM. Kinase reaction buffer was prepared containing 10 mM MgCl2, 50 mM HEPES, 1 mM EGTA, 0.01% TWEEN-20, 2 mM DTT. Serial dilutions of the test compounds were prepared at 4×final assay concentrations using Freedom EVO200® dispensing system as follows: 12×10^−5 M, 4×10^−5 M, 1.33×10^−5 M, 4.44×10^−6 M, 1.48×10^−6 M, 4.92×10^−7 M, 1.65×10^−7 M, 5.48×10^−7 M, 1.82×10^−8 M, 6.09×10^−9, 2.03×10^−9 M. Test compounds (2.5 μl at 4×the final assay concentration) was added to wells using Freedom EVO200® dispensing system. As a positive control, 2.5 μl of positive compound was added to assay wells, and 2.5 μl of DMSO to assay wells as vehicle control. Kinase solution was prepared in reaction buffer at 2×final assay concentration. Kinase solution (5 μl) was added to each well of the assay plate. The substrate and ATP solution was prepared in kinase reaction buffer at 4×final assay concentration. The kinase reaction was started by adding 2.5 μl of substrate+ATP mix solution to each well of the assay plate. The plate is mixed on a plate shaker; then covered and allowed to react for 2 hours in the dark at 25° C. without shaking. The reaction was stopped by adding 5 μl of stop solution to each test well followed by mixing and incubation at RT for 10 minutes in the dark. 5 μl of detection mix (detection antibody diluted in detection buffer) was added; the contents of the plate were mixed and then incubated in the dark for 1 hour at RT. The signal was recorded at TR-FRET mode (665 nm/615 nm).
Compound `COc1cc(-c2cc(=O)n3nc(-c4ccc(Cl)cc4)nc3[nH]2)ccc1Cl` [Example 8, 5-(4-Chloro-3-methoxyphenyl)-2-(4-chlorophenyl)-[1,2,4]triazolo[1,5-a]pyrimidin-7(4H)-one] has an IC50 of at most 10 µM. `O=c1cc(-c2ccc3c(c2)OCO3)[nH]c2nc(-c3ccc(Cl)cc3)nn12` [Example 15, 5-(Benzo[d][1,3]dioxol-5-yl)-2-(4-chlorophenyl)-[1,2,4]triazolo[1,5-a]pyrimidin-7(4H)-one] showed an IC50 of at most 10 µM. With `O=c1cc(-c2ccc3nn[nH]c3c2)[nH]c2nc(-c3ccccc3Cl)nn12` [Example 22, 5-(1H-Benzo[d][1,2,3]triazol-6-yl)-2-(2-chlorophenyl)-[1,2,4]triazolo[1,5-a]pyrimidin-7(4H)-one] the IC50 was at most 10 µM. `Cc1ccccc1-c1nc2[nH]c(-c3ccc4nn[nH]c4c3)cc(=O)n2n1` [Example 23, 5-(1H-benzo[d][1,2,3]triazol-6-yl)-2-o-tolyl-[1,2,4]triazolo[1,5-a]pyrimidin-7(4H)-one] gave an IC50 of at most 10 µM. For `NC(=O)c1nc2[nH]c(-c3ccc4nn[nH]c4c3)cc(=O)n2n1` [Example 24, 5-(1H-benzo[d][1,2,3]triazol-6-yl)-7-oxo-4,7-dihydro-[1,2,4]triazolo[1,5-a]pyrimidine-2-carboxamide], the IC50 was at most 10 µM. In the case of `CCn1ncc2cc(-c3cc(=O)n4nc(-c5ccccc5Cl)nc4[nH]3)ccc21` [Example 25, 2-(2-chlorophenyl)-5-(1-ethyl-1H-indazol-5-yl)-[1,2,4]triazolo[1,5-a]pyrimidin-7(4H)-one], the IC50 is reported as at most 10 µM. Work on `COc1ccc(-c2cc(=O)n3ncnc3[nH]2)cc1` [Example 26, 5-(4-Methoxyphenyl)-[1,2,4]triazolo[1,5-a]pyrimidin-7(4H)-one] yielded an IC50 of at most 10 µM. Compound `COc1ccc(-c2cc(=O)n3nc(C)nc3[nH]2)cc1` [Example 27, 5-(4-Methoxyphenyl)-2-methyl-[1,2,4]triazolo[1,5-a]pyrimidin-7(4H)-one] has an IC50 of at most 10 µM. With `O=c1cc(-c2ccc3c(c2)OCCO3)[nH]c2nc(-c3ccccn3)nn12` [Example 28, 5-(2,3-Dihydrobenzo[b][1,4]dioxin-6-yl)-2-(pyridin-2-yl)-[1,2,4]triazolo[1,5-a]pyrimidin-7(4H)-one] the IC50 was at most 10 µM. `O=c1cc(-c2ccc3c(c2)OCO3)[nH]c2nc(-c3ccccn3)nn12` [Example 29, 5-(Benzo[d][1,3]dioxol-5-yl)-2-(pyridin-2-yl)-[1,2,4]triazolo[1,5-a]pyrimidin-7(4H)-one] was tested, and the IC50 was at most 10 µM. Compound `COc1ccc(-c2cc(=O)n3nc(-c4ccc(Cl)cc4)nc3[nH]2)cc1` [Example 34, 2-(4-Chlorophenyl)-5-(4-methoxyphenyl)-[1,2,4]triazolo[1,5-a]pyrimidin-7(4H)-one] has an IC50 of at most 10 µM. `O=c1cc(-c2ccc3[nH]nnc3c2)[nH]c2nc(-c3ccc(Cl)cc3)nn12` [Example 39, 5-(1H-Benzo[d][1,2,3]triazol-5-yl)-2-(4-chlorophenyl)-[1,2,4]triazolo[1,5-a]pyrimidin-7(4H)-one] showed an IC50 of at most 10 µM. In the case of `O=c1cc(-c2ccc3[nH]nnc3c2)[nH]c2nc(-c3ccc(F)cc3)nn12` [Example 40, 5-(1H-Benzo[d][1,2,3]triazol-5-yl)-2-(4-fluorophenyl)-[1,2,4]triazolo[1,5-a]pyrimidin-7(4H)-one], the IC50 is reported as at most 10 µM. `O=c1cc(-c2ccc3[nH]nnc3c2)[nH]c2nc(-c3ccccc3)nn12` [Example 41, 5-(1H-Benzo[d][1,2,3]triazol-5-yl)-2-phenyl-[1,2,4]triazolo[1,5-a]pyrimidin-7(4H)-one] gave an IC50 of at most 10 µM. Compound `CCn1ncc2cc(-c3cc(=O)n4nc(-c5ccc(Cl)cc5)nc4[nH]3)ccc21` [Example 42, 2-(4-Chlorophenyl)-5-(1-ethyl-1H-indazol-5-yl)-[1,2,4]triazolo[1,5-a]pyrimidin-7(4H)-one] has an IC50 of at most 10 µM. Compound `Cc1nc2[nH]c(-c3ccc4[nH]nnc4c3)cc(=O)n2n1` [Example 43, 5-(1H-Benzo[d][1,2,3]triazol-5-yl)-2-methyl-[1,2,4]triazolo[1,5-a]pyrimidin-7(4H)-one] has an IC50 of at most 10 µM. Compound `O=c1cc(-c2ccc3[nH]ncc3c2)[nH]c2nc(-c3ccc(Cl)cc3)nn12` [Example 44, 2-(4-Chlorophenyl)-5-(1H-indazol-5-yl)-[1,2,4]triazolo[1,5-a]pyrimidin-7(4H)-one] has an IC50 of at most 10 µM. For `O=c1cc(-c2ccc3[nH]nnc3c2)[nH]c2nc(Cc3ccccc3)nn12` [Example 45, 5-(1H-Benzo[d][1,2,3]triazol-5-yl)-2-benzyl-[1,2,4]triazolo[1,5-a]pyrimidin-7(4H)-one], the IC50 was at most 10 µM.
